The text below walks through data of publication PMC5218480 (PLoS ONE, 2017).

For the assay, the system named is MV-4-11 cells. The assay can be described thus: Gene expression microarray analysis (Affymetrix PrimeView) and GSEA. It counts as cell-based, human. Also on record: RFU PODN (11730768_x_at) / Fold change /veh PODN (11730768_x_at) / RFU LINC00158 (11744669_a_at) / Fold change /veh LINC00158 (11744669_a_at) / RFU DUSP10 (11751237_a_at) / Fold change /veh DUSP10 (11751237_a_at) / RFU ID3 (11757404_x_at) / Fold change /veh ID3 (11757404_x_at) / RFU PLEKHG5 (11737974_s_at) / Fold change /veh PLEKHG5 (11737974_s_at) / RFU LRRC4B (11730491_at) / Fold change /veh LRRC4B (11730491_at) / RFU GIMAP4 (11747438_a_at) / Fold change /veh GIMAP4 (11747438_a_at) / RFU KRT8 (11758183_x_at) / Fold change /veh KRT8 (11758183_x_at) / RFU CNN1 (11734310_a_at) / Fold change /veh CNN1 (11734310_a_at) / RFU VPS37D (11726825_at) / Fold change /veh VPS37D (11726825_at) / RFU C10orf10 (11716522_x_at) / Fold change /veh C10orf10 (11716522_x_at) / RFU KIR2DL2 /// KIR2DL4 /// KIR2DL5A /// KIR2DL5B /// KIR2DS1 /// KIR2DS2 /// KIR2DS3 /// KIR2DS4 /// KIR3DL3 /// KIR3DL3 /// KIR3DS1 (11738374_at) / Fold change /veh KIR2DL2 /// KIR2DL4 /// KIR2DL5A /// KIR2DL5B /// KIR2DS1 /// KIR2DS2 /// KIR2DS3 /// KIR2DS4 /// KIR3DL3 /// KIR3DL3 /// KIR3DS1 (11738374_at) / RFU C1QL1 (11718748_at) / Fold change /veh C1QL1 (11718748_at) / RFU TMPRSS4 (11747572_a_at) / Fold change /veh TMPRSS4 (11747572_a_at) / RFU HAMP (11756126_x_at) / Fold change /veh HAMP (11756126_x_at) / RFU RNFT2 (11725882_a_at) / Fold change /veh RNFT2 (11725882_a_at) / RFU NR4A2 (11747474_a_at) / Fold change /veh NR4A2 (11747474_a_at) / RFU ABCC12 (11746883_a_at) / Fold change /veh ABCC12 (11746883_a_at) / RFU TMEM136 (11760407_x_at) / Fold change /veh TMEM136 (11760407_x_at) / RFU CLDN22 /// WWC2 (11732394_at) / Fold change /veh CLDN22 /// WWC2 (11732394_at) / RFU HLA-DPB1 (11760878_x_at) / Fold change /veh HLA-DPB1 (11760878_x_at) / RFU SPINT1 (11716480_a_at) / Fold change /veh SPINT1 (11716480_a_at) / RFU GAP43 (11754022_s_at) / Fold change /veh GAP43 (11754022_s_at) / RFU A4GNT (11735810_at) / Fold change /veh A4GNT (11735810_at) / RFU PRB3 (11715151_x_at) / Fold change /veh PRB3 (11715151_x_at) / RFU TUBB4B (11761932_at) / Fold change /veh TUBB4B (11761932_at) / RFU CAPN14 (11732068_a_at) / Fold change /veh CAPN14 (11732068_a_at) / RFU TMCC2 (11721928_a_at) / Fold change /veh TMCC2 (11721928_a_at) / RFU IRGQ (11745062_a_at) / Fold change /veh IRGQ (11745062_a_at) / RFU FAM174B (11720279_a_at) / Fold change /veh FAM174B (11720279_a_at) / RFU TMPRSS4 (11748680_a_at) / Fold change /veh TMPRSS4 (11748680_a_at) / RFU FAM212B (11763350_a_at) / Fold change /veh FAM212B (11763350_a_at) / RFU PLEKHG5 (11743358_a_at) / Fold change /veh PLEKHG5 (11743358_a_at) / RFU ZSCAN30 (11745921_a_at) / Fold change /veh ZSCAN30 (11745921_a_at) / RFU CMKLR1 (11741424_a_at) / Fold change /veh CMKLR1 (11741424_a_at) / RFU LOC101060620 /// MAPK8IP1 (11723275_at) / Fold change /veh LOC101060620 /// MAPK8IP1 (11723275_at) / RFU SPTSSB (11747773_x_at) / Fold change /veh SPTSSB (11747773_x_at) / RFU PRSS12 (11739890_at) / Fold change /veh PRSS12 (11739890_at) / RFU BIN1 (11741810_x_at) / Fold change /veh BIN1 (11741810_x_at) / RFU WNT11 (11732464_a_at) / Fold change /veh WNT11 (11732464_a_at) / RFU C10orf10 (11716521_a_at) / Fold change /veh C10orf10 (11716521_a_at) / RFU C5orf56 (11738089_at) / Fold change /veh C5orf56 (11738089_at) / RFU CYB561 (11721691_x_at) / Fold change /veh CYB561 (11721691_x_at) / RFU ANKRD19P (11752326_a_at) / Fold change /veh ANKRD19P (11752326_a_at) / RFU OR2T12 /// OR2T33 /// OR2T8 (11738714_s_at) / Fold change /veh OR2T12 /// OR2T33 /// OR2T8 (11738714_s_at) / RFU VCAN (11748164_a_at) / Fold change /veh VCAN (11748164_a_at) / RFU JSRP1 (11732532_at) / Fold change /veh JSRP1 (11732532_at) / RFU KRTAP10-11 (11738290_x_at) / Fold change /veh KRTAP10-11 (11738290_x_at) / RFU MYO3A (11730013_a_at) / Fold change /veh MYO3A (11730013_a_at) / RFU EBF3 (11725865_a_at) / Fold change /veh EBF3 (11725865_a_at) / RFU CAMK2N1 (11719241_x_at) / Fold change /veh CAMK2N1 (11719241_x_at) / RFU C5orf56 (11738088_a_at) / Fold change /veh C5orf56 (11738088_a_at) / RFU OLFML3 (11715873_a_at) / Fold change /veh OLFML3 (11715873_a_at) / RFU LOC100653217 /// NTM (11731650_a_at) / Fold change /veh LOC100653217 /// NTM (11731650_a_at) / RFU MAPK11 (11762145_a_at) / Fold change /veh MAPK11 (11762145_a_at) / RFU FIZ1 (11724087_x_at) / Fold change /veh FIZ1 (11724087_x_at) / RFU OASL (11726364_x_at) / Fold change /veh OASL (11726364_x_at) / RFU SOX15 (11748057_x_at) / Fold change /veh SOX15 (11748057_x_at) / RFU CD79A (11719716_a_at) / Fold change /veh CD79A (11719716_a_at) / RFU HIST1H1D (11736915_at) / Fold change /veh HIST1H1D (11736915_at) / RFU CASKIN2 (11723855_a_at) / Fold change /veh CASKIN2 (11723855_a_at) / RFU LOC730098 (11760151_x_at) / Fold change /veh LOC730098 (11760151_x_at) / RFU OR4N2 (11742367_at) / Fold change /veh OR4N2 (11742367_at) / RFU PRRT2 (11749266_a_at) / Fold change /veh PRRT2 (11749266_a_at) / RFU SNX32 (11753110_a_at) / Fold change /veh SNX32 (11753110_a_at) / RFU CDHR5 (11726645_a_at) / Fold change /veh CDHR5 (11726645_a_at) / RFU RCAN1 (11760418_a_at) / Fold change /veh RCAN1 (11760418_a_at) / RFU FAM167A (11723789_a_at) / Fold change /veh FAM167A (11723789_a_at) / RFU FAM26E (11764081_at) / Fold change /veh FAM26E (11764081_at) / RFU ISYNA1 (11749810_s_at) / Fold change /veh ISYNA1 (11749810_s_at) / RFU ACY1 (11761880_at) / Fold change /veh ACY1 (11761880_at) / RFU 11764098_at / Fold change /veh 11764098_at / RFU SAMD14 (11745864_x_at) / Fold change /veh SAMD14 (11745864_x_at) / RFU NPB (11741838_a_at) / Fold change /veh NPB (11741838_a_at) / RFU TMPRSS6 (11731388_a_at) / Fold change /veh TMPRSS6 (11731388_a_at) / RFU KRTAP10-2 (11738614_at) / Fold change /veh KRTAP10-2 (11738614_at) / RFU ARHGAP8 /// PRR5-ARHGAP8 (11727945_x_at) / Fold change /veh ARHGAP8 /// PRR5-ARHGAP8 (11727945_x_at) / RFU KRTAP5-7 /// NADSYN1 (11734609_at) / Fold change /veh KRTAP5-7 /// NADSYN1 (11734609_at) / RFU RASL12 (11751679_a_at) / Fold change /veh RASL12 (11751679_a_at) / RFU CDKN2B (11736163_a_at) / Fold change /veh CDKN2B (11736163_a_at) / RFU PRF1 (11729649_at) / Fold change /veh PRF1 (11729649_at) / RFU, ZNF638 /// ZNF638-IT1 / Fold change vs veh, ZNF638 /// ZNF638-IT1 / RFU, PANK3 / Fold change vs veh, PANK3 / RFU, SH3YL1 / Fold change vs veh, SH3YL1 / RFU, ZEB2 / Fold change vs veh, ZEB2 / RFU, NRIP1 / Fold change vs veh, NRIP1 / RFU, PTTG1IP / Fold change vs veh, PTTG1IP / RFU, CAPN2 / Fold change vs veh, CAPN2 / RFU, MED14 / Fold change vs veh, MED14 / RFU, SNORA58 / Fold change vs veh, SNORA58 / RFU, C1orf63 / Fold change vs veh, C1orf63 / RFU, LRRFIP1 / Fold change vs veh, LRRFIP1 / RFU, NDUFAF7 / Fold change vs veh, NDUFAF7 / RFU, SLC12A2 / Fold change vs veh, SLC12A2 / RFU, IBTK / Fold change vs veh, IBTK / RFU, ESF1 / Fold change vs veh, ESF1 / Fold change vs veh, TMEM50B / RFU, TAOK1 / Fold change vs veh, TAOK1 / RFU, ACBD3 / Fold change vs veh, ACBD3 / RFU, TMA16 / Fold change vs veh, TMA16 / RFU, RWDD3 / Fold change vs veh, RWDD3 / RFU, BCAT1 / Fold change vs veh, BCAT1 / RFU, EDEM3 / Fold change vs veh, EDEM3 / RFU, TMEM33 / Fold change vs veh, TMEM33 / RFU, WDR75 / Fold change vs veh, WDR75 / RFU, AHCTF1 / Fold change vs veh, AHCTF1 / RFU, TFRC / Fold change vs veh, TFRC / RFU, ZDHHC17 / Fold change vs veh, ZDHHC17 / RFU, NOM1 / Fold change vs veh, NOM1 / RFU, ARL8B / Fold change vs veh, ARL8B / RFU, ZBTB11 / Fold change vs veh, ZBTB11 / RFU, TAMM41 / Fold change vs veh, TAMM41 / RFU, KIAA1704 /// LOC100996395 / Fold change vs veh, KIAA1704 /// LOC100996395 / RFU, ING1 / Fold change vs veh, ING1 / RFU, TRMT61B / Fold change vs veh, TRMT61B / RFU, FUBP3 / Fold change vs veh, FUBP3 / RFU, TP53 / Fold change vs veh, TP53 / RFU, TNKS2 / Fold change vs veh, TNKS2 / RFU, ZFP14 / Fold change vs veh, ZFP14 / RFU, ACTR2 / Fold change vs veh, ACTR2 / RFU, PPP3R1 / Fold change vs veh, PPP3R1 / RFU, PIK3R1 / Fold change vs veh, PIK3R1 / RFU, HNRNPA1 / Fold change vs veh, HNRNPA1 / RFU, RNF170 / Fold change vs veh, RNF170 / RFU, ZNF28 / Fold change vs veh, ZNF28 / RFU, RNGTT / Fold change vs veh, RNGTT / RFU, OGT / Fold change vs veh, OGT / RFU, BRD1 / Fold change vs veh, BRD1 / RFU, MARS / Fold change vs veh, MARS / RFU, ZNF655 / Fold change vs veh, ZNF655 / RFU, FAHD1 / Fold change vs veh, FAHD1 / RFU, BDP1 / Fold change vs veh, BDP1 / RFU, LRRCC1 / Fold change vs veh, LRRCC1 / RFU, ARID1A / Fold change vs veh, ARID1A / RFU, ZNF146 / Fold change vs veh, ZNF146 / RFU, ZNF330 / Fold change vs veh, ZNF330 / RFU, GPN3 / Fold change vs veh, GPN3 / RFU, C9orf123 / Fold change vs veh, C9orf123 / RFU, N4BP2L2 / Fold change vs veh, N4BP2L2 / RFU, ARFIP1 / Fold change vs veh, ARFIP1 / RFU, FAM179B / Fold change vs veh, FAM179B / RFU, BCL10 / Fold change vs veh, BCL10 / RFU, UHRF1BP1L / Fold change vs veh, UHRF1BP1L / RFU, BET1 / Fold change vs veh, BET1 / RFU, CNOT2 / Fold change vs veh, CNOT2 / RFU, ZNF268 / Fold change vs veh, ZNF268 / Fold change vs veh, ZNF507 / RFU, DGCR2 / Fold change vs veh, DGCR2 / RFU, WDSUB1 / Fold change vs veh, WDSUB1 / Fold change vs veh, HSP90B1 /// MIR3652 / RFU, ADSS / Fold change vs veh, ADSS / RFU, GK / Fold change vs veh, GK / RFU, ZNF148 / Fold change vs veh, ZNF148 / RFU, TAF9 / Fold change vs veh, TAF9 / RFU, SLC1A5 / Fold change vs veh, SLC1A5 / RFU, SLMO2 / Fold change vs veh, SLMO2 / RFU, ABCC4 / Fold change vs veh, ABCC4 / RFU, LOC101060439 /// RAP1B / Fold change vs veh, LOC101060439 /// RAP1B / RFU, RFX7 / Fold change vs veh, RFX7 / RFU, GTPBP10 / Fold change vs veh, GTPBP10 / RFU, CNEP1R1 / Fold change vs veh, CNEP1R1 / RFU, BIVM-ERCC5 /// ERCC5 / Fold change vs veh, BIVM-ERCC5 /// ERCC5 / RFU, ILF3 / Fold change vs veh, ILF3 / RFU 11762660_at / Fold change /veh 11762660_at / RFU VCAN (11757783_s_at) / Fold change /veh VCAN (11757783_s_at) / RFU DDX43 (11728927_at) / Fold change /veh DDX43 (11728927_at) / RFU KRT8 (11758188_x_at) / Fold change /veh KRT8 (11758188_x_at) / RFU NKD1 (11759106_at) / Fold change /veh NKD1 (11759106_at) / RFU SRD5A1 (11742802_a_at) / Fold change /veh SRD5A1 (11742802_a_at) / RFU TPSAB1 /// TPSB2 (11721975_s_at) / Fold change /veh TPSAB1 /// TPSB2 (11721975_s_at) / RFU GSTM3 (11746129_a_at) / Fold change /veh GSTM3 (11746129_a_at) / RFU IL23R (11737362_x_at) / Fold change /veh IL23R (11737362_x_at) / RFU TMEM51 (11727254_a_at) / Fold change /veh TMEM51 (11727254_a_at) / RFU PIWIL2 (11732686_x_at) / Fold change /veh PIWIL2 (11732686_x_at) / RFU ORM1 (11744905_x_at) / Fold change /veh ORM1 (11744905_x_at) / RFU CCDC152 (11743942_at) / Fold change /veh CCDC152 (11743942_at) / RFU ECM1 (11717891_a_at) / Fold change /veh ECM1 (11717891_a_at) / RFU IL23R (11748794_a_at) / Fold change /veh IL23R (11748794_a_at) / RFU TNFAIP8L3 (11732012_x_at) / Fold change /veh TNFAIP8L3 (11732012_x_at) / RFU MBOAT4 (11741988_at) / Fold change /veh MBOAT4 (11741988_at) / RFU 11764193_at / Fold change /veh 11764193_at / RFU TMEM53 (11763286_at) / Fold change /veh TMEM53 (11763286_at) / RFU MAGEB2 (11727129_at) / Fold change /veh MAGEB2 (11727129_at) / RFU TMEM200A (11744735_a_at) / Fold change /veh TMEM200A (11744735_a_at) / RFU CCDC152 (11751479_a_at) / Fold change /veh CCDC152 (11751479_a_at) / RFU FAM211A (11726209_a_at) / Fold change /veh FAM211A (11726209_a_at) / RFU RGS16 (11746705_a_at) / Fold change /veh RGS16 (11746705_a_at) / RFU VCAN (11755009_s_at) / Fold change /veh VCAN (11755009_s_at) / RFU RHOB (11743442_s_at) / Fold change /veh RHOB (11743442_s_at) / RFU RGS16 (11720943_a_at) / Fold change /veh RGS16 (11720943_a_at) / RFU RGS16 (11720944_at) / Fold change /veh RGS16 (11720944_at) / RFU, VPS4B / Fold change vs veh, VPS4B / RFU, CREB1 / Fold change vs veh, CREB1 / RFU, DNAJC13 / Fold change vs veh, DNAJC13 / RFU, GNAQ / Fold change vs veh, GNAQ / RFU, CDK5R1 / Fold change vs veh, CDK5R1 / RFU, ZRANB3 / Fold change vs veh, ZRANB3 / RFU, CUL4A / Fold change vs veh, CUL4A / RFU, CCNY / Fold change vs veh, CCNY / RFU, UFL1 / Fold change vs veh, UFL1 / RFU, COG3 / Fold change vs veh, COG3 / RFU, DIAPH2 / Fold change vs veh, DIAPH2 / RFU, SKA2 / Fold change vs veh, SKA2 / RFU, AFF3 / Fold change vs veh, AFF3 / RFU, LMF1 / Fold change vs veh, LMF1 / RFU, IPO11 / Fold change vs veh, IPO11 / RFU, DFFB / Fold change vs veh, DFFB / RFU, FOXP1 / Fold change vs veh, FOXP1 / RFU, CARD8 / Fold change vs veh, CARD8 / RFU, STRN3 / Fold change vs veh, STRN3 / RFU, ADK / Fold change vs veh, ADK / RFU, RASSF2 / Fold change vs veh, RASSF2 / RFU, WIPF1 / Fold change vs veh, WIPF1 / RFU, LARP1B / Fold change vs veh, LARP1B / RFU, RASA1 / Fold change vs veh, RASA1 / RFU, RB1 / Fold change vs veh, RB1 / RFU, PPFIA1 / Fold change vs veh, PPFIA1 / RFU, MAT2A / Fold change vs veh, MAT2A / RFU, CCT5 / Fold change vs veh, CCT5 / RFU, WDR92 / Fold change vs veh, WDR92 / RFU, CUX1 / Fold change vs veh, CUX1 / RFU, TTC7A / Fold change vs veh, TTC7A / RFU, TMEM135 / Fold change vs veh, TMEM135 / RFU, DEPTOR / Fold change vs veh, DEPTOR / RFU, CPM / Fold change vs veh, CPM / RFU, DNAJB6 / Fold change vs veh, DNAJB6 / RFU, CACNA2D3 / Fold change vs veh, CACNA2D3 / RFU, DTX4 / Fold change vs veh, DTX4 / RFU, TFCP2 / Fold change vs veh, TFCP2 / RFU, GMCL1 /// GMCL1P1 / Fold change vs veh, GMCL1 /// GMCL1P1 / RFU, AEBP2 / Fold change vs veh, AEBP2 / RFU, SNHG1 /// SNORD22 /// SNORD25 /// SNORD26 /// SNORD27 /// SNORD28 /// SNORD29 /// SNORD31 / Fold change vs veh, SNHG1 /// SNORD22 /// SNORD25 /// SNORD26 /// SNORD27 /// SNORD28 /// SNORD29 /// SNORD31 / Fold change (Aza/veh), C12orf56 (ProbeSet 11735607_a_at) / Fold change (ACY-1035/veh), C12orf56 (ProbeSet 11735607_a_at) / Fold change (Aza/veh), FGFR1OP (ProbeSet 11751329_s_at) / Fold change (ACY-1035/veh), FGFR1OP (ProbeSet 11751329_s_at) / Fold change (Aza/veh), VPS36 (ProbeSet 11739960_a_at) / Fold change (ACY-1035/veh), VPS36 (ProbeSet 11739960_a_at) / RFU SYPL1 (11715823_x_at) / Fold change /veh SYPL1 (11715823_x_at) / RFU IGFBP7 (11715501_s_at) / Fold change /veh IGFBP7 (11715501_s_at) / RFU REEP3 (11722064_at) / Fold change /veh REEP3 (11722064_at) / RFU IGLL1 (11728026_x_at) / Fold change /veh IGLL1 (11728026_x_at): dose or concentration left out as unconfirmed. To be noted: ProbeSet 11725141_a_at; LIST B.

Regarding `Nc1ccc(-c2cccs2)cc1NC(=O)c1ccc2c(c1)cc(C1CC1)n2CCN1CCOCC1` [ACY-1035], the “RFU, FUBP3” value worked out at 490.19 RFU.
